# Tested on: myotubes differentiated from C2C12 cells
# Assay: mitochondrial calcium elevation (mitochondrial aequorin luminescence) on caffeine stimulation
# Assay type: cell-based
# Conditions: 1 mM Mg^2+ + 3 μM Oea; C2C12-derived myotubes; 5 mM caffeine; n=32; P<0.05 Student's t-test; FIG. 1
# Method: To test the effect of Oleuropein aglycone (Oea), Mg^2+ and their combination on mitochondrial activation in living cells, the inventors measured mitochondrial calcium elevation in myotubes differentiated from C2C12 cells.
# C2C12 cells were purchased from ATCC. C2C12 cells were seeded in 384-well plates at a density of 4500 cells per well in DMEM medium, high glucose (Gibco)+10% fetal calf serum. Myotubes were differentiated from C2C12 cells by growing the cells in DMEM containing 2% horse serum, for 6 days.
# Mitochondrial calcium measurements were carried out using myotubes infected with the adenovirus (from Sirion biotech) expressing the luminescent mitochondrially-targeted calcium sensor mitochondrial mutated aequorin (Montero et al., 2004). […] Myotubes were stimulated with 5 mM of caffeine and the total calcium transiting during stimulation was calculated as the area under the curve, during caffeine stimulation. Luminescence was measured at the FLIPR cell imaging reader (Molecular devices). Calibration of the luminescence data into Calcium concentration was carried out using an algorithm as described previously (Alvarez & Montero, 2002). Custom module analysis based on Excel (Microsoft) and GraphPad Prism 7.02 (GraphPad) software was used for quantification.
smiles,measurement,value
C/C=C1/C(O)OC=C(C(=O)OC)[C@H]1CC(=O)OCCc1ccc(O)c(O)c1 (mixture of isomers) [Oleuropein aglycone],mitochondrial calcium rise: real measured effect of the combination vs expected theoretical effect (sum of Oea effect and Mg^2+ effect),synergies with Mg^2+ to activate mitochondria

# From US20250009774A1, “COMPOSITIONS AND METHODS USING A COMBINATION OF OLEUROPEIN AND MAGNESIUM” (SOCIETE DES PRODUITS NESTLE S.A., priority 2021, published 2025)
